Holding throughout (format): in vivo
The test system of experiment [1] is Amaranthus retroflexus. The experiment in a line: greenhouse pre-emergence herbicidal test. Conditions: scale 0 to 100. From the text: The seeds of the test plants were sown separately for each species. For the pre-emergence treatment, the active ingredients, which had been suspended or emulsified in water, were applied directly after sowing by means of finely distributing nozzles. The containers were irrigated gently to promote germination and growth and subsequently covered with transparent plastic hoods until the plants had rooted. This cover caused uniform germination of the test plants, unless this had been impaired by the active ingredients. […] The test period extended over 2 to 4 weeks. During this time, the plants were tended, and their response to the individual treatments was evaluated. Evaluation was carried out using a scale from 0 to 100. 100 means no emergence of the plants, or complete destruction of at least the aerial moieties, and 0 means no damage, or normal course of growth. A moderate herbicidal activity is given at values of at least 60, a good herbicidal activity is given at values of at least 70, and a very good herbicidal activity is given at values of at least 85. The plants used in the greenhouse experiments were of the following species: […]

In another experiment the test system is Setaria faberi. The experiment in a line: greenhouse pre-emergence herbicidal test. Conditions: scale 0 to 100. From the text:
(§1) The culture containers used were plastic flowerpots containing loamy sand with approximately 3.0% of humus as the substrate. The seeds of the test plants were sown separately for each species.
(§2) For the pre-emergence treatment, the active ingredients, which had been suspended or emulsified in water, were applied directly after sowing by means of finely distributing nozzles.
(§3) The containers were irrigated gently to promote germination and growth and subsequently covered with transparent plastic hoods until the plants had rooted. This cover caused uniform germination of the test plants, unless this had been impaired by the active ingredients.
(§4) Depending on the species, the plants were kept at 10-25° C. or 20-35° C., respectively.
(§5) The test period extended over 2 to 4 weeks. During this time, the plants were tended, and their response to the individual treatments was evaluated.
(§6) Evaluation was carried out using a scale from 0 to 100. 100 means no emergence of the plants, or complete destruction of at least the aerial moieties, and 0 means no damage, or normal course of growth. A moderate herbicidal activity is given at values of at least 60, a good herbicidal activity is given at values of at least 70, and a very good herbicidal activity is given at values of at least 85.
(§7) The plants used in the greenhouse experiments were of the following species: […]

The test system of a further experiment is Echinocloa crus-galli. The experiment in a line: greenhouse pre-emergence herbicidal test. Conditions: 250 g/ha, scale 0 to 100.
Text: as §1, §2, §3, §4, §5, §6, §7

Another experiment relates to Alopercurus myosuroides. Briefly: greenhouse pre-emergence herbicidal test. Conditions: scale 0 to 100.
Text: as §1, §2, §3, §4, §5, §6, §7

Experiment [2] concerns Abutilon theophrasti. The experiment in a line: greenhouse post-emergence herbicidal test. Particulars: 250 g/ha, scale 0 to 100.
Text: as §1
(§8) For the post-emergence treatment, the test plants were first grown to a height of 3 to 15 cm, depending on the plant habit, and only then treated with the active ingredients which had been suspended or emulsified in water. For this purpose, the test plants were either sown directly and grown in the same containers, or they were first grown separately as seedlings and transplanted into the test containers a few days prior to treatment.
as §4, §5, §6, §7

Experiment [3] deals with Amaranthus retroflexus. Briefly: greenhouse post-emergence herbicidal test. Conditions: 250 g/ha, scale 0 to 100.
Text: as §1, §8, §4, §5, §6, §7

The subject of a further experiment is Apera spica-venti. Briefly: greenhouse pre-emergence herbicidal test. Particulars: scale 0 to 100.
Text: as §1, §2, §3, §4, §5, §6, §7

For experiment [4], the system named is Abutilon theophrasti. Briefly: greenhouse pre-emergence herbicidal test. Particulars: 250 g/ha, scale 0 to 100.
Text: as §1, §2, §3, §4, §5, §6, §7

The next experiment deals with Lolium multiflorum. The experiment in a line: greenhouse pre-emergence herbicidal test. Particulars: 250 g/ha, scale 0 to 100.
Text: as §1, §2, §3, §4, §5, §6, §7

SMILES strings stand for the structures.

Data on 36 molecules can be found in US11388901B2, “Herbicidal azines” (BASF SE, priority 2017, dated 2022).

As for `Nc1nc(Nc2c(F)ncc(F)c2Cl)nc(C2(F)CCCC2)n1` [Example 12], the herbicidal activity with Amaranthus retroflexus [1] (250 g/ha) was determined as 100%; in the experiment on Setaria faberi (250 g/ha) it was 100%; with Echinocloa crus-galli it was 98%.
Take `CC(C)CC(F)(F)c1nc(N)nc(Nc2c(F)ncc(F)c2Cl)n1` [Example 38]: the results for the herbicidal activity in the experiment with Amaranthus retroflexus [1] (250 g/ha) and with Setaria faberi (250 g/ha) were 100% and 90%, respectively.
`CC(C)(F)c1nc(N)nc(Nc2c(F)ncc(F)c2Br)n1` [Example 35]: the herbicidal activity with Amaranthus retroflexus [1] (250 g/ha), with Echinocloa crus-galli and with Alopercurus myosuroides (250 g/ha) was 100% each time.
Regarding `C#CC(C)(F)c1nc(N)nc(Nc2c(F)ncc(F)c2Cl)n1` (centres unmarked) [Example 48], the herbicidal activity was 100% in the experiment with Amaranthus retroflexus [1] (250 g/ha), 100% with Setaria faberi (250 g/ha) and 98% in the experiment with Echinocloa crus-galli.
For `CC(C)(C)c1nc(N)nc(Nc2c(F)ncc(F)c2Cl)n1` [Example 7, 6-tert-butyl-N4-(4-chloro-2,5-difluoro-3-pyridyl)-1,3,5-triazine-2,4-diamine], the herbicidal activity is 90% with Amaranthus retroflexus [1] (250 g/ha), 95% in the experiment on Setaria faberi (250 g/ha) and 98% in the experiment on Alopercurus myosuroides (250 g/ha).
With `CCCC(F)(F)c1nc(N)nc(Nc2c(F)ncc(F)c2Cl)n1` [Example 37], the herbicidal activity with Amaranthus retroflexus [1] (250 g/ha), with Setaria faberi (250 g/ha) and in the experiment with Alopercurus myosuroides (250 g/ha) was 100% each time.
On to `Nc1nc(Nc2c(F)ncc(F)c2Cl)nc(C2CCCC2)n1` [Example 6], for which the herbicidal activity with Amaranthus retroflexus [1] (250 g/ha) is on record as 90%; in the experiment on Alopercurus myosuroides (250 g/ha), 80%.
Take `CC(C)(F)c1nc(N)nc(Nc2c(F)ncc(F)c2I)n1` [Example 41]: the herbicidal activity is 100% with Amaranthus retroflexus [1] (250 g/ha), 100% with Setaria faberi (250 g/ha) and 98% in the experiment on Alopercurus myosuroides (250 g/ha).
In the case of `N#Cc1ccnc(Cl)c1Nc1nc(N)nc(C2(F)CCCC2)n1` [Example 60], the herbicidal activity is reported as 98% in the experiment with Amaranthus retroflexus [1] (250 g/ha); 95% in the experiment with Abutilon theophrasti [2]; 80% with Amaranthus retroflexus [3]; 95% in the experiment with Apera spica-venti (250 g/ha); 85% in the experiment with Echinocloa crus-galli.
On to `CC(C)(F)c1nc(N)nc(Nc2c(F)ncc(F)c2Cl)n1` [Example 4], for which the herbicidal activity in the experiment on Amaranthus retroflexus [1] (250 g/ha), with Echinocloa crus-galli and in the experiment on Alopercurus myosuroides (250 g/ha) was 100% throughout.
As for `CC(C)(C)c1nc(N)nc(Nc2c(F)ncc(F)c2Cl)n1` [Example 2, 6-tert-butyl-N4-(4-chloro-2,5-difluoro-3-pyridyl)-1,3,5-triazine-2,4-diamine], the figures for the herbicidal activity in the experiment with Amaranthus retroflexus [1] (125 g/ha) and in the experiment on Apera spica-venti (125 g/ha) were 100% and 90%, respectively.
In the experiment with Amaranthus retroflexus [1] (250 g/ha), `CC(C)(C#N)c1nc(N)nc(Nc2c(F)ncc(F)c2Cl)n1` [Example 28] gave a herbicidal activity of 100%.
Consider `CCC(F)(CC)c1nc(N)nc(Nc2c(F)ncc(F)c2Br)n1` [Example 52], for which the herbicidal activity with Amaranthus retroflexus [1] (250 g/ha), in the experiment with Setaria faberi (250 g/ha) and in the experiment on Echinocloa crus-galli was 100% in each case.
In the case of `Nc1nc(Nc2c(F)ncc(F)c2Cl)nc(C2(F)CCCCC2)n1` [Example 11], the herbicidal activity with Amaranthus retroflexus [1] (250 g/ha), in the experiment with Setaria faberi (250 g/ha) and in the experiment with Alopercurus myosuroides (250 g/ha) was 100% in each case.
On to `CC(C)(CO)c1nc(N)nc(Nc2c(F)ncc(F)c2Cl)n1` [Example 40], for which the values for the herbicidal activity in the experiment with Amaranthus retroflexus [1] (250 g/ha), in the experiment with Setaria faberi (250 g/ha) and with Alopercurus myosuroides (250 g/ha) were 100%, 95% and 90%, respectively.
As to `CCCC(F)c1nc(N)nc(Nc2c(F)ncc(F)c2Br)n1` (centres unmarked) [Example 46], the herbicidal activity in the experiment on Amaranthus retroflexus [1] (250 g/ha) is given as 100%; in the experiment on Setaria faberi (250 g/ha), 100%; with Alopercurus myosuroides (250 g/ha), 98%.
In the experiment on Amaranthus retroflexus [1] (250 g/ha), `CC1(c2nc(N)nc(Nc3c(F)ncc(F)c3Cl)n2)CC1` [Example 33] had a herbicidal activity of 98%.
`Cc1ccnc(Cl)c1Nc1nc(N)nc(C(C)(C)F)n1` [Example 53]: the herbicidal activity was 100% with Amaranthus retroflexus [1] (250 g/ha); 80% with Abutilon theophrasti [2]; 98% with Amaranthus retroflexus [3]; 95% in the experiment with Setaria faberi (250 g/ha); 100% with Abutilon theophrasti [4].
With `Nc1nc(Nc2c(F)ncc(F)c2Cl)nc(C(F)C2CCCC2)n1` (racemic) [Example 20], the herbicidal activity with Amaranthus retroflexus [1] (250 g/ha), in the experiment with Setaria faberi (250 g/ha) and in the experiment on Alopercurus myosuroides (250 g/ha) was 100% throughout.
Regarding `CC1(c2nc(N)nc(Nc3c(F)ncc(F)c3Cl)n2)CCC1` [Example 9], the herbicidal activity in the experiment with Amaranthus retroflexus [1] (250 g/ha), with Echinocloa crus-galli and with Alopercurus myosuroides (250 g/ha) was 100% throughout.
On to `Nc1nc(Nc2c(F)ncc(F)c2Br)nc(C2(F)CCCCC2)n1` [Example 51], for which the herbicidal activity with Amaranthus retroflexus [1] (250 g/ha), in the experiment with Setaria faberi (250 g/ha) and in the experiment on Alopercurus myosuroides (250 g/ha) was 100% each time.
As to `Cc1nc(F)c(Nc2nc(N)nc(C(C)(C)F)n2)c(Cl)c1F` [Example 32, N4-(4-Chloro-2,5-difluoro-6-methyl-3-pyridyl)-6-(1-fluoro-1-methyl-ethyl)-1,3,5-triazine-2,4-diamine], the values for the herbicidal activity with Amaranthus retroflexus [1] (250 g/ha), with Echinocloa crus-galli and in the experiment with Alopercurus myosuroides (250 g/ha) were 100%, 85% and 90%, respectively.
For `COC1(c2nc(N)nc(Nc3c(F)ncc(F)c3Cl)n2)CCCC1` [Example 10], the herbicidal activity is 100% with Amaranthus retroflexus [1] (250 g/ha), 95% with Lolium multiflorum and 100% in the experiment with Alopercurus myosuroides (250 g/ha).
In the case of `Nc1nc(Nc2c(F)ncc(F)c2Cl)nc(C2(F)CC2)n1` [Example 31], the herbicidal activity with Amaranthus retroflexus [1] (250 g/ha), with Echinocloa crus-galli and with Alopercurus myosuroides (250 g/ha) was 100% each time.
On to `CC1(c2nc(N)nc(Nc3c(F)ncc(F)c3Cl)n2)CCCC1` [Example 14], for which the herbicidal activity with Amaranthus retroflexus [1] (250 g/ha) is given as 85%.
With `CCCC(F)c1nc(N)nc(Nc2c(F)ncc(F)c2Cl)n1` (racemic) [Example 13], the herbicidal activity with Amaranthus retroflexus [1] (250 g/ha), in the experiment on Setaria faberi (250 g/ha) and with Echinocloa crus-galli was 100% throughout.
Regarding `CC(F)c1nc(N)nc(Nc2c(F)ncc(F)c2Cl)n1` (racemic) [Example 8], the herbicidal activity in the experiment with Amaranthus retroflexus [1] (250 g/ha) turned out to be 100%; with Setaria faberi (250 g/ha), 100%; with Echinocloa crus-galli it was 90%.
With `Nc1nc(Nc2c(F)ncc(F)c2Cl)nc(C2(Cl)CCCC2)n1` [Example 21], the herbicidal activity in the experiment on Amaranthus retroflexus [1] (250 g/ha) was determined as 100%; in the experiment on Setaria faberi (250 g/ha), 95%.
On to `Nc1nc(Nc2c(F)ncc(F)c2Br)nc(C(F)C2CCCC2)n1` (centres unmarked) [Example 61], for which the herbicidal activity in the experiment with Amaranthus retroflexus [1] (250 g/ha) is 100%; in the experiment on Setaria faberi (250 g/ha) it was 100%; with Alopercurus myosuroides (250 g/ha) it was 90%.
As for `CCCc1nc(F)c(Nc2nc(N)nc(C(C)(C)F)n2)c(Cl)c1F` [Example 44], the herbicidal activity in the experiment on Amaranthus retroflexus [1] (250 g/ha) is 100%.
On to `Nc1nc(Nc2c(F)ncc(F)c2Cl)nc(C2(F)CC=CC2)n1` [Example 19], for which the herbicidal activity in the experiment on Amaranthus retroflexus [1] (250 g/ha), with Setaria faberi (250 g/ha) and in the experiment with Echinocloa crus-galli was 100% each time.
With `CC1CCC(c2nc(N)nc(Nc3c(F)ncc(F)c3Cl)n2)CC1` (centres unmarked) [Example 23], in the experiment on Amaranthus retroflexus [1] (250 g/ha), the herbicidal activity came to 95%.
With `Nc1nc(Nc2c(Cl)ccnc2Cl)nc(C2(F)CCCC2)n1` [Example 47], the herbicidal activity in the experiment with Amaranthus retroflexus [1] (250 g/ha), in the experiment with Setaria faberi (250 g/ha) and in the experiment with Lolium multiflorum was 100% in each case.
Turning to `CC(C)(Cl)c1nc(N)nc(Nc2c(F)ncc(F)c2Cl)n1` [Example 36], the herbicidal activity with Amaranthus retroflexus [1] (250 g/ha), in the experiment with Setaria faberi (250 g/ha) and with Alopercurus myosuroides (250 g/ha) was 100% each time.
With `Nc1nc(Nc2c(F)nc(F)c(F)c2Cl)nc(C2(F)CCCC2)n1` [Example 69], the herbicidal activity with Amaranthus retroflexus [1] (125 g/ha), in the experiment with Setaria faberi (125 g/ha) and in the experiment with Alopercurus myosuroides (125 g/ha) was 100% each time.
Regarding `Nc1nc(Nc2c(F)ncc(F)c2Br)nc(C2(F)CCCC2)n1` [Example 43], the herbicidal activity in the experiment on Amaranthus retroflexus [1] (250 g/ha), in the experiment with Setaria faberi (250 g/ha) and with Alopercurus myosuroides (250 g/ha) was 100% in each case.
